In the test the test system is IL-1-induced release of neutral protease from rabbit articular chondrocytes. As to the kind of experiment: Inhibition of IL-1-induced release of neutral protease from rabbit articular chondrocytes (azocoll neutral protease assay). To be noted: Oryctolagus cuniculus, Chondrocyte, purified human IL-1 stimulation. The format is cell-based, rabbit (male New Zealand white). How it is done:
The ability of the compounds of the inventions to inhibit interleukin 1 is measured by the ability of the test compounds to inhibit the IL-1-induced release of neutral protease from rabbit articular chondrocytes.
This assay is carried out as follows:
Isolation of rabbit chondrocytes
Male New Zealand white rabbits are anesthetized with 50 mg/kg of ketamine (i.m.) and killed by an intracardiac injection of 3 mls of Nembutal. The knee joints of both legs are resected and the articular surfaces are exposed. Cartilage slices are obtained using a scalpel and are placed in a tissue culture dish (100 mm diameter) containing 10 mls of Hank's balanced salt solution (HBSS). The chondrocytes within the cartilage slices are then liberated by a series of enzyme digestions. The slices are incubated for 10 minutes at 37° C. in 0.05% hyaluronidase (Sigma H-3884), rinsed with HBSS and incubated with 0.2% trypsin (Sigma T-2395) for 10 minutes at 37° C. The slices are rinsed again and incubated for 10 minutes at 37° C. with 1.2% collagenase (Sigma C-5138). The slices are then rinsed again with HBSS and resuspended in 10 ml of Ham's F-12 medium containing 10% fetal bovine calf serum (FCS) and 0.2% collagenase and incubated overnight at 37° C. in a 5% CO2 incubator. The next day, the medium containing the digested cartilage fragments and liberated chondrocytes is transferred to a 15 ml centrifuge tube and the cells are collected by centrifugation and washed twice and resuspended in Ham's F-12 medium. The cells are then plated into 24-well tissue culture plates (2×10^ 5 cells/well) and incubated at […] until confluent (usually 4-6 days).
Stimulation of chondrocytes and drug treatment
The confluent chondrocytes are rinsed twice with serum-free Ham's F-12 medium and 1 ml is added to each well. Fifty μl of purified human IL-1 (100 Units/ml; Genzyme Corporation, Boston, MA) is then added to stimulate these cells to secrete neutral protease. To measure drug effects, the cells are treated with test compound 10 minutes prior to addition of IL-1. The standard screening dose is 10 μM. Twenty-four hours after IL-1 stimulation, supernatant fluids are collected and assayed for neutral protease activity.
The neutral protease activity of chondrocyte supernatant fluids is determined by their ability to degrade an insoluble protease substrate, azocoll (Sigma). Supernatants are treated for 10 minutes at room temperature with 350 μM p-aminophenylmurcuric acetate to activate the latent enzyme. Three hundred of μl of supernatant is then mixed with 500 μl of a 20 mg/ml suspension of azocoll and incubated at 37° C. for 18-24 hours with gentle rocking. The mixtures are centrifuged and the amount of substrate hydrolyzed is determined by measuring the absorbance of the supernatant at 520 nm.
Drug effects are calculated as the % change in enzyme activity (absorbance)by supernatants from drug-treated chondrocytes relative to enzyme activity of supernatants from vehicle-treated chondrocytes as follows: [formula]
Where tested in this assay, the compounds of the invention gave the following results: […]

Setting [1] is: test compound 10 min before IL-1, 24 h, read-out: % Inhibition (I.S.D.).

SMILES strings stand for the structures. pIC50: −log10 of the molar value.

Results on six molecules are retold here after patent US5216162A, “Substituted pyrrolo[3,2-c]quinolines” (American Home Products Corporation, priority 1992, dated 1993).

Usually inhibition stands for the share of the control response that was lost under treatment. Broadly, the pIC50 is −log10 of the IC50, conventionally taken in molar units. As to `CS(=O)(=O)c1ccc(NCCc2[nH]c3c(cnc4cc(Cl)ccc43)c2C=NNc2ccccc2)cc1` [Example 6, 7-Chloro-2-[2-[[4-(methylsulfonyl)phenyl]amino]ethyl]-1H-pyrrolo[3,2-c]quinoline-3-carboxaldehyde phenylhydrazone], for the setting “dose 0.1 μM, test compound 10 min before IL-1, 24 h, read-out: % Inhibition (I.S.D.)”, the inhibition at 0.1 µM was determined as 14%. Besides, the inhibition at 1 µM (dose 1 μM, test compound 10 min before IL-1, 24 h, read-out: % Inhibition (I.S.D.)) turned out to be 23%. Further, the inhibition at 10 µM under setting [1] turned out to be 80%. This molecule also showed a pIC50 (24 h, doses 10, 1 and 0.1 μM) of 5.54.
Regarding `N#Cc1ccc(NCCc2[nH]c3c(cnc4cc(Cl)ccc43)c2C=NNc2ccccc2)cc1` [Example 4, 4-[[2-[7-Chloro-3-[(phenylhydrazono)methyl]-1H-pyrrolo[3,2-c]quinolin-2-yl]ethyl]amino]benzonitrile], the inhibition at 10 µM under setting [1] came to 52%.
Still for that read-out and setting: the figure for `CCOC(=O)c1ccc(NCCc2[nH]c3c(cnc4cc(Cl)ccc43)c2C=NNc2ccccc2)cc1` [Example 5, 4-[[2-[7-Chloro-3-[(phenylhydrazono)methyl]-1H-pyrrolo[3,2-c]quinolin-2-yl]ethyl]amino]benzoic acid ethyl ester] is 54%.
Turning to `CCOC(=O)c1ccc(NCCc2[nH]c3c(cnc4cc(Cl)ccc43)c2C=O)cc1` [Example 2, 4-[[2-(7-Chloro-3-formyl-1H-pyrrolo[3,2-c]quinolin-2-yl)ethyl]amino]benzoicacid ethyl ester], the inhibition at 10 µM under setting [1] turned out to be 50%.
With `CS(=O)(=O)c1ccc(NCCc2[nH]c3c(cnc4cc(Cl)ccc43)c2C=O)cc1` [Example 3, 7-Chloro-2-[2-[[4-(methylsulfonyl)phenyl]amino]ethyl]-1H-pyrrolo[3,2-c]quinoline-3-carboxaldehyde], the inhibition at 10 µM under setting [1] is 28%.
The same measure, in the same setting: to `N#Cc1ccc(NCCc2[nH]c3c(cnc4cc(Cl)ccc43)c2C=O)cc1` [Example 1, 4-[[2-(7-Chloro-3-formyl-1H-pyrrolo[3,2-c]-quinolin-2-yl)ethyl]amino]benzonitrile] belongs 21%.
